The values that follow come from publication PMC2440032, “Odorranalectin Is a Small Peptide Lectin with Potential for Drug Delivery and Targeting” (PLoS ONE, 2008).

One may read the Kd as the equilibrium constant for the complex coming apart.

Values joined by “and” are separate entries in the source; they are usually repeats but may differ in a detail not shown here. Equal entries are not always repeated.

Assay [1] concerns odorranalectin-mediated erythrocytes hemagglutination. As to the kind of experiment: Hemagglutination-inhibition test. The assay is classed as cell-based, rabbit. The settings on record: for MIC, minimum concentration to inhibit odorranalectin-mediated erythrocytes hemagglutination: inhibition of four hemagglutination doses of odorranalectin. The method, then:
Intact, pronase-treated, trypsin-treated, and formaldehyde-treated rabbit erythrocytes were prepared. Assays were carried out in U-well microtiter plates (96 wells) as described previously [21]–[23]. The details are provided in the supplementary materials (Materials and Methods S1).
Inhibition was expressed as the minimum concentration of each sugar or glycoprotein required for inhibition of hemagglutination of titer 4 of the lectin.

The target in assay [2] is immobilized odorranalectin (Odorrana grahami, UniProt B3TFE9). As to the kind of experiment: SPR, analytes on immobilized odorranalectin. The assay is classed as binding. The method, then: Real time detection of odorranalectin and its mutants binding to glycoproteins and L-fucose was recorded by using a Biacore 3000 [21]–[24]. The details are provided in the supplementary materials (Materials and Methods S1).
SPR Analysis. Real time detection of odorranalectin and its mutants binding to glycoproteins and L-fucose was recorded by using a Biacore 3000 [21-24]. Odorranalectin was immobilized covalently via their primary amines to carboxyl groups within a dextran layer on the sensor chip CM-5 according to the manufacturer’s specifications. After chip activation with 0.4 M 1-ethyl-3- (3-dimethylaminopropyl) carbodiimide hydrochloride and 10 mM N-hydroxysuccinimide, odorranalectin or its mutants (in 10 mM sodium acetate buffer, pH 4.0) at a concentration of 100 μg/ml was passed through the flow cells at a rate of 5 μl/min. After immobilization, the chip was capped by exposure to 1 M ethanolamine (pH 8.5).
All analyses were performed at a flow rate of 30 μl/min. Before loading of analytes, the chip was equilibrated with 10 mM HEPES-buffered saline containing 3 mM EDTA and 0.005% surfactant P-20, pH 7.4 (HBS-EP). Each analyte at various concentrations in the same buffer was injected over the immobilized ligand for 4 min. After injection of the analyte, HBS-EP was introduced onto the sensor surface to start dissociation, and dissociation data were collected for 5 min. The chip was regenerated by injection of 5μl of 10 mM HCl or NaOH, followed by HBS-EP.
Association and dissociation rate constants (ka and kd) were calculated by using BIA evaluation 4.0 software (Biacore AB, Sweden). The affinity constant (KD) was calculated from the ka and kd. For the calculation of rate constants, samples were appropriately diluted in HBS-EP at various concentrations.
(In general: In SPR one partner is held on a chip, and binding of the other changes the refractive index at the surface.)

Where [3] appears, read: SPR Biacore 3000, CM-5 chip, HBS-EP pH 7.4, 1:1 binding model.

Take `O=[N+]([O-])c1ccccc1O[C@@H]1O[C@H](CO)[C@H](O)[C@H](O)[C@H]1O` [2-nitrophenyl-β-D-galactopyranoside]: the “MIC, minimum concentration to inhibit odorranalectin-mediated erythrocytes hemagglutination” value in assay [1] (sugars) is given as greater than 200 mM.
Same read-out and setting: the same measure for `OC[C@H]1O[C@@H](Oc2c[nH]c3ccc(Br)c(Cl)c23)[C@H](O)[C@@H](O)[C@H]1O` [5-bromo-4-chloro-3-indoxyl-β-D-galactopyranoside]: greater than 200 mM; for `OC1OC[C@@H](O)[C@@H](O)[C@@H]1O` (stereo partly drawn) [D(+)-arabinose]: greater than 200 mM.
On the same count and under the same terms, the same measure for `OC[C@H]1O[C@@H](O[C@H]2[C@H](O)[C@@H](O)[C@H](O)O[C@@H]2CO)[C@H](O)[C@@H](O)[C@@H]1O` [D(+)-cellobiose]: greater than 200 mM; for `OC[C@H]1OC(O)[C@H](O)[C@@H](O)[C@H]1O` (stereo partly drawn) [D(+)-galactose]: greater than 200 mM.
The same measure, in the same setting: the same measure for `O=C(O)[C@H]1OC(O)[C@H](O)[C@@H](O)[C@H]1O` (stereo partly drawn) [D(+)-galacturonic acid]: greater than 200 mM.
For the molecule `O.OC[C@H]1O[C@@](CO)(O[C@H]2O[C@H](CO)[C@@H](O)[C@H](O)[C@H]2O)[C@@H](O[C@H]2O[C@H](CO)[C@@H](O)[C@H](O)[C@H]2O)[C@@H]1O` [D(+)-melezitose monohydrate], the “MIC, minimum concentration to inhibit odorranalectin-mediated erythrocytes hemagglutination” value in assay [1] (sugars) is reported as greater than 200 mM.
On the same count and under the same terms, the same measure for `O.O.O.O.O.OC[C@H]1O[C@H](OC[C@H]2O[C@H](O[C@]3(CO)O[C@H](CO)[C@@H](O)[C@@H]3O)[C@H](O)[C@@H](O)[C@@H]2O)[C@H](O)[C@@H](O)[C@H]1O` [D(+)-raffinose pentahydrate]: greater than 200 mM.
As for `OC1COC(O)C(O)C1O` (stereo not drawn) [D(+)-xylose], in assay [1] (sugars), the “MIC, minimum concentration to inhibit odorranalectin-mediated erythrocytes hemagglutination” value is recorded as greater than 200 mM.
Take `OC[C@H]1OC(O)[C@H](O)[C@@H](O)[C@@H]1O` (stereo partly drawn) [D-glucose]: the “MIC, minimum concentration to inhibit odorranalectin-mediated erythrocytes hemagglutination” value in assay [1] (sugars) is reported as greater than 200 mM.
`O=C(CO)[C@H](O)[C@@H](O)[C@H](O)CO` [D-sorbose]: the “MIC, minimum concentration to inhibit odorranalectin-mediated erythrocytes hemagglutination” value in assay [1] (sugars) is listed as greater than 200 mM.
Same read-out and setting: in the case of `OC[C@H]1O[C@H](O[C@H]2O[C@H](CO)[C@@H](O)[C@H](O)[C@H]2O)[C@H](O)[C@@H](O)[C@@H]1O` [D-trehalose] it was greater than 200 mM; in that of `C[C@@H]1O[C@@H](O)[C@H](O)[C@H](O)[C@H]1O.O` [L(+)-rhamnose monohydrate], greater than 200 mM.
As for `C[C@H](O)[C@@H](O)[C@@H](O)[C@H](O)C=O` [L-fucose, reference compound], the minimal effective concentration in assay [1] (Oryctolagus cuniculus, Erythrocyte, read-out: MIC, minimum concentration to inhibit odorranalectin-mediated erythrocytes hemagglutination) came to 12500 µM. The Kd in assay [2] (SPR Biacore 3000, CM-5 chip, HBS-EP pH 7.4, calculated from ka and kd) is 54.7 µM. Also, the kon in assay [2] (pH 7.4, read-out: ka) turned out to be 159 M⁻¹ s⁻¹. For the same molecule, in assay [2] (pH 7.4, read-out: kd), the koff turned out to be 0.00867 s⁻¹.
On to `CC(=O)N[C@@H]1C(O)O[C@H](CO)[C@@H](O)[C@@H]1O` (stereo partly drawn) [N-acetyl-D-mannosamine], for which the “MIC, minimum concentration to inhibit odorranalectin-mediated erythrocytes hemagglutination” value in assay [1] (sugars) is on record as greater than 200 mM.
Regarding `CC(=O)N[C@@H]1[C@@H](O)[C@@H](O)[C@@H](CO)O[C@@H]1O` [N-acetylgalactosamine], the “MIC, minimum concentration to inhibit odorranalectin-mediated erythrocytes hemagglutination” value in assay [1] (sugars) is reported as greater than 200 mM.
Regarding `O=C(CO)N[C@H]1[C@H]([C@H](O)[C@H](O)CO)OC(O)(C(=O)O)C[C@@H]1O` (stereo partly shown) [N-glycolylneuraminc acid], the “MIC, minimum concentration to inhibit odorranalectin-mediated erythrocytes hemagglutination” value in assay [1] (sugars) is listed as greater than 200 mM.
Still for that read-out and setting: in the case of `OC[C@@H](O)[C@H](O)[C@H](O)[C@@H](O)CO` [dulcitol] it was greater than 200 mM.
On the same count and under the same terms, the same measure for `CC(C)S[C@@H]1O[C@H](CO)[C@H](O)[C@H](O)[C@H]1O` [isopropy-β-D-thiogalactoside]: greater than 200 mM.
For D(+)-maltose monohydrate, the “MIC, minimum concentration to inhibit odorranalectin-mediated erythrocytes hemagglutination” value in assay [1] (sugars) is listed as greater than 200 mM.
Take “Fetuin: glycoprotein used as analyte and inhibitor”: the “Inhibition of the hemagglutinating activity of odorranalectin by glycoproteins (in words)” value in assay [1] is on record as “most effective inhibitor”. Moreover, in assay [1] (glycoproteins), the “MIC, minimum concentration to inhibit odorranalectin-mediated erythrocytes hemagglutination” value is 15.63 µg/mL and 15.6 µg/mL. In assay [2] (setting [3]), the ka was found to be 2890 M⁻¹ s⁻¹ and the kd worked out at 0.00061 s⁻¹.
As to “Transferrin: glycoprotein used as analyte”, in assay [1], the “Inhibition of the hemagglutinating activity of odorranalectin by glycoproteins (in words)” value is on record as “All the glycoproteins except transferrin could inhibit”. Also, the “Binding to immobilized odorranalectin (in words)” value in assay [2] (SPR) is “did not bind”.
For the molecule heparin, the “MIC, minimum concentration to inhibit odorranalectin-mediated erythrocytes hemagglutination” value in assay [1] (sugars) was greater than 200 mM.
Take inulin: the “MIC, minimum concentration to inhibit odorranalectin-mediated erythrocytes hemagglutination” value in assay [1] (sugars) was greater than 200 mM.
